# Key:
# BT-549 = assay: Antitumor activity against human BT-549 cells assessed as cell growth inhibition at 10 uM incubated for 48 hrs by sulforhodamine B assay; format: functional; conditions: read-out: GI
# RXF 393 = assay: Antitumor activity against human RXF 393 cells assessed as cell growth inhibition at 10 uM incubated for 48 hrs by sulforhodamine B assay; format: functional; conditions: read-out: GI
# K562 = assay: Antitumor activity against human K562 cells assessed as cell growth inhibition at 10 uM incubated for 48 hrs by sulforhodamine B assay; format: functional; conditions: read-out: GI
# Malme-3M = assay: Antitumor activity against human MALME-3M cells assessed as cell growth inhibition at 10 uM incubated for 48 hrs by sulforhodamine B assay; format: functional; conditions: read-out: GI
# M14 = assay: Antitumor activity against human M14 cells assessed as cell growth inhibition at 10 uM incubated for 48 hrs by sulforhodamine B assay; format: functional; conditions: read-out: GI
# SF-295 = assay: Antitumor activity against human SF295 cells assessed as cell growth inhibition at 10 uM incubated for 48 hrs by sulforhodamine B assay; format: functional; conditions: read-out: GI
# HCC 2998 = assay: Antitumor activity against human HCC2998 cells assessed as cell growth inhibition at 10 uM incubated for 48 hrs by sulforhodamine B assay; format: functional; conditions: read-out: GI
# NCI-H460 = assay: Antitumor activity against human NCI-H460 assessed as cell growth inhibition at 10 uM incubated for 48 hrs by sulforhodamine B assay; format: functional; conditions: read-out: GI
# KM12 = assay: Antitumor activity against human KM12 cells assessed as cell growth inhibition at 10 uM incubated for 48 hrs by sulforhodamine B assay; format: functional; conditions: read-out: GI
# MCF7 = assay: Antitumor activity against human MCF7 cells assessed as cell growth inhibition at 10 uM incubated for 48 hrs by sulforhodamine B assay; format: functional; conditions: read-out: GI
# LOX IMVI = assay: Antitumor activity against human LOX IMVI cells assessed as cell growth inhibition at 10 uM incubated for 48 hrs by sulforhodamine B assay; format: functional; conditions: read-out: GI
# ACHN = assay: Antitumor activity against human ACHN cells assessed as cell growth inhibition at 10 uM incubated for 48 hrs by sulforhodamine B assay; format: functional; conditions: read-out: GI
# MDA-MB-435 = assay: Antitumor activity against human MDA-MB-435 cells assessed as cell growth inhibition at 10 uM incubated for 48 hrs by sulforhodamine B assay; format: functional; conditions: read-out: GI
# HT-29 = assay: Antitumor activity against human HT-29 cells assessed as cell growth inhibition at 10 uM incubated for 48 hrs by sulforhodamine B assay; format: functional; conditions: read-out: GI
# NCI-H226 = assay: Antitumor activity against human NCI-H226 assessed as cell growth inhibition at 10 uM incubated for 48 hrs by sulforhodamine B assay; format: functional; conditions: read-out: GI
# COLO 205 = assay: Antitumor activity against human COLO205 cells assessed as cell growth inhibition at 10 uM incubated for 48 hrs by sulforhodamine B assay; format: functional; conditions: read-out: GI
# SK-OV-3 = assay: Antitumor activity against human SK-OV-3 cells assessed as cell growth inhibition at 10 uM incubated for 48 hrs by sulforhodamine B assay; format: functional; conditions: read-out: GI
# OVCAR-4 = assay: Antitumor activity against human OVCAR-4 cells assessed as cell growth inhibition at 10 uM incubated for 48 hrs by sulforhodamine B assay; format: functional; conditions: read-out: GI
# HL-60(TB) = assay: Antitumor activity against human HL-60(TB) cells assessed as cell growth inhibition at 10 uM incubated for 48 hrs by sulforhodamine B assay; format: functional; conditions: read-out: GI
# OVCAR-3 = assay: Antitumor activity against human OVCAR-3 cells assessed as cell growth inhibition at 10 uM incubated for 48 hrs by sulforhodamine B assay; format: functional; conditions: read-out: GI
# A498 = assay: Antitumor activity against human A498 cells assessed as cell growth inhibition at 10 uM incubated for 48 hrs by sulforhodamine B assay; format: functional; conditions: read-out: GI
# SR = assay: Antitumor activity against human SR cells assessed as cell growth inhibition at 10 uM incubated for 48 hrs by sulforhodamine B assay; format: functional; conditions: read-out: GI
# UO-31 = assay: Antitumor activity against human UO-31 cells assessed as cell growth inhibition at 10 uM incubated for 48 hrs by sulforhodamine B assay; format: functional; conditions: read-out: GI
# SN12C = assay: Antitumor activity against human SN12C cells assessed as cell growth inhibition at 10 uM incubated for 48 hrs by sulforhodamine B assay; format: functional; conditions: read-out: GI
# RPMI-8226 = assay: Antitumor activity against human RPMI8226 cells assessed as cell growth inhibition at 10 uM incubated for 48 hrs by sulforhodamine B assay; format: functional; conditions: read-out: GI
# NCI/ADR-RES = assay: Antitumor activity against human NCI/ADR-RES cells assessed as cell growth inhibition at 10 uM incubated for 48 hrs by sulforhodamine B assay; format: functional; conditions: read-out: GI
# OVCAR-8 = assay: Antitumor activity against human OVCAR-8 cells assessed as cell growth inhibition at 10 uM incubated for 48 hrs by sulforhodamine B assay; format: functional; conditions: read-out: GI
# HCT-116 = assay: Antitumor activity against human HCT116 cells assessed as cell growth inhibition at 10 uM incubated for 48 hrs by sulforhodamine B assay; format: functional; conditions: read-out: GI
# SK-MEL-28 = assay: Antitumor activity against human SK-MEL-28 cells assessed as cell growth inhibition at 10 uM incubated for 48 hrs by sulforhodamine B assay; format: functional; conditions: read-out: GI
# NCI-H23 = assay: Antitumor activity against human NCI-H23 cells assessed as cell growth inhibition at 10 uM incubated for 48 hrs by sulforhodamine B assay; format: functional; conditions: read-out: GI
# NCI-H522 = assay: Antitumor activity against human NCI-H522 cells assessed as cell growth inhibition at 10 uM incubated for 48 hrs by sulforhodamine B assay; format: functional; conditions: read-out: GI
# PC-3 = assay: Antitumor activity against human PC-3 cells assessed as cell growth inhibition at 10 uM incubated for 48 hrs by sulforhodamine B assay; format: functional; conditions: read-out: GI
# MOLT-4 = assay: Antitumor activity against human MOLT4 cells assessed as cell growth inhibition at 10 uM incubated for 48 hrs by sulforhodamine B assay; format: functional; conditions: read-out: GI
# HOP-92 = assay: Antitumor activity against human HOP92 cells assessed as cell growth inhibition at 10 uM incubated for 48 hrs by sulforhodamine B assay; format: functional; conditions: read-out: GI
# SW-620 = assay: Antitumor activity against human SW620 cells assessed as cell growth inhibition at 10 uM incubated for 48 hrs by sulforhodamine B assay; conditions: SW-620, 48 h, read-out: GI
# SNB-75 = assay: Antitumor activity against human SNB-75 cells assessed as cell growth inhibition at 10 uM incubated for 48 hrs by sulforhodamine B assay; format: functional; conditions: read-out: GI
# SNB-19 = assay: Antitumor activity against human SNB-19 cells assessed as cell growth inhibition at 10 uM incubated for 48 hrs by sulforhodamine B assay; format: functional; conditions: read-out: GI
# MDA-MB-231 = assay: Antitumor activity against human MDA-MB-231/ATCC cells assessed as cell growth inhibition at 10 uM incubated for 48 hrs by sulforhodamine B assay; format: functional; conditions: read-out: GI
# CCRF-CEM = assay: Antitumor activity against human CCRF-CEM cells assessed as cell growth inhibition at 10 uM incubated for 48 hrs by sulforhodamine B assay; format: functional; conditions: read-out: GI
# IGROV-1 = assay: Antitumor activity against human IGROV1 cells assessed as cell growth inhibition at 10 uM incubated for 48 hrs by sulforhodamine B assay; format: functional; conditions: read-out: GI
# U-251 = assay: Antitumor activity against human U251 cells assessed as cell growth inhibition at 10 uM incubated for 48 hrs by sulforhodamine B assay; format: functional; conditions: read-out: GI
# EKVX = assay: Antitumor activity against human EKVX cells assessed as cell growth inhibition at 10 uM incubated for 48 hrs by sulforhodamine B assay; format: functional; conditions: read-out: GI
# HCT-15 = assay: Antitumor activity against human HCT15 cells assessed as cell growth inhibition at 10 uM incubated for 48 hrs by sulforhodamine B assay; format: functional; conditions: read-out: GI
# 786-0 = assay: Antitumor activity against human 786-0 cells assessed as cell growth inhibition at 10 uM incubated for 48 hrs by sulforhodamine B assay; format: functional; conditions: read-out: GI
# UACC-62 = assay: Antitumor activity against human UACC-62 cells assessed as cell growth inhibition at 10 uM incubated for 48 hrs by sulforhodamine B assay; format: functional; conditions: read-out: GI
# MDA-MB-468 = assay: Antitumor activity against human MDA-MB-468 cells assessed as cell growth inhibition at 10 uM incubated for 48 hrs by sulforhodamine B assay; format: functional; conditions: read-out: GI
# SF-268 = assay: Antitumor activity against human SF268 cells assessed as cell growth inhibition at 10 uM incubated for 48 hrs by sulforhodamine B assay; format: functional; conditions: read-out: GI
# Hs-578T = assay: Antitumor activity against human HS 578T cells assessed as cell growth inhibition at 10 uM incubated for 48 hrs by sulforhodamine B assay; format: functional; conditions: read-out: GI
structure (smiles),measurement,setting,value
O=C1c2ccccc2C(=O)c2c1ccc1[nH]c(-c3ccc(-c4nc5c6ccccc6c6ccccc6c5[nH]4)cc3)nc21,inhibition of growth at 10 µM,BT-549,< 10%
same,inhibition of growth at 10 µM,RXF 393,< 10%
same,inhibition of growth at 10 µM,K562,< 10%
same,inhibition of growth at 10 µM,Malme-3M,< 10%
same,inhibition of growth at 10 µM,M14,< 10%
same,inhibition of growth at 10 µM,SF-295,< 10%
same,inhibition of growth at 10 µM,HCC 2998,< 10%
same,inhibition of growth at 10 µM,NCI-H460,< 10%
same,inhibition of growth at 10 µM,KM12,< 10%
same,inhibition of growth at 10 µM,MCF7,< 10%
same,inhibition of growth at 10 µM,LOX IMVI,< 10%
same,inhibition of growth at 10 µM,ACHN,< 10%
same,inhibition of growth at 10 µM,MDA-MB-435,< 10%
same,inhibition of growth at 10 µM,HT-29,< 10%
same,inhibition of growth at 10 µM,NCI-H226,< 10%
same,inhibition of growth at 10 µM,COLO 205,< 10%
same,inhibition of growth at 10 µM,SK-OV-3,< 10%
same,inhibition of growth at 10 µM,OVCAR-4,89%
same,inhibition of growth at 10 µM,HL-60(TB),< 10%
same,inhibition of growth at 10 µM,OVCAR-3,< 10%
same,inhibition of growth at 10 µM,A498,< 10%
same,inhibition of growth at 10 µM,SR,11.4%
same,inhibition of growth at 10 µM,UO-31,22.6%
same,inhibition of growth at 10 µM,SN12C,< 10%
same,inhibition of growth at 10 µM,RPMI-8226,10.4%
same,inhibition of growth at 10 µM,NCI/ADR-RES,< 10%
same,inhibition of growth at 10 µM,OVCAR-8,< 10%
same,inhibition of growth at 10 µM,HCT-116,< 10%
same,inhibition of growth at 10 µM,SK-MEL-28,< 10%
same,inhibition of growth at 10 µM,NCI-H23,< 10%
same,inhibition of growth at 10 µM,NCI-H522,< 10%
same,inhibition of growth at 10 µM,PC-3,< 10%
same,inhibition of growth at 10 µM,MOLT-4,12.4%
same,inhibition of growth at 10 µM,HOP-92,< 10%
same,inhibition of growth at 10 µM,SW-620,< 10%
same,inhibition of growth at 10 µM,SNB-75,10%
same,inhibition of growth at 10 µM,SNB-19,< 10%
same,inhibition of growth at 10 µM,MDA-MB-231,14.4%
same,inhibition of growth at 10 µM,CCRF-CEM,< 10%
same,inhibition of growth at 10 µM,IGROV-1,< 10%
same,inhibition of growth at 10 µM,U-251,< 10%
same,inhibition of growth at 10 µM,EKVX,10.3%
same,inhibition of growth at 10 µM,HCT-15,< 10%
same,inhibition of growth at 10 µM,786-0,< 10%
same,inhibition of growth at 10 µM,UACC-62,< 10%
same,inhibition of growth at 10 µM,MDA-MB-468,< 10%
same,inhibition of growth at 10 µM,SF-268,< 10%
same,inhibition of growth at 10 µM,Hs-578T,< 10%

# Reference: ChEMBL document CHEMBL4665624, “Synthesis of 5-(4-(1H-phenanthro[9,10-d]imidazol-2-yl)benzylidene)thiazolidine-2,4-dione as promising DNA and serum albumin-binding agents and evaluation of antitumor activity” (Eur J Med Chem, 2019)
